Test system: 252836-082-R-J2-PDC tumor spheroids, viability
Assay: Anticancer human tumor 252836-082-R-J2-PDC patient-derived head and neck squamous cell carcinoma cell line growth inhibition [PI3K]
Settings: spheroids with HUVEC and MSC; for viability, T/C: stronger effect = lower value
Method in brief: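 Agents were dosed from a top concentration near clinical Cmax (otherwise 10 microM) in half-log decrements, alone or combined with PI3K inhibitors. The spheroids contain tumor cells plus endothelial (HUVEC) and MSC stroma; viability is measured.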

[1] = curve of first compound, second compound 0.0316 µM
[2] = curve of first compound, second compound 0.1 µM
[3] = curve of first compound, second compound 0.316 µM
[4] = curve of first compound, second compound 1 µM
[5] = curve of first compound, second compound 3.16 µM
[6] = curve of first compound, second compound 10 µM
[7] = second compound 0.0316 µM, first compound 0.0316 µM
[8] = second compound 0.0316 µM, first compound 0.1 µM
[9] = second compound 0.0316 µM, first compound 0.316 µM
[10] = second compound 0.0316 µM, first compound 1 µM
[11] = second compound 0.0316 µM, first compound 3.16 µM
[12] = second compound 0.0316 µM, first compound 10 µM
[13] = second compound 0.1 µM, first compound 0.0316 µM
[14] = second compound 0.1 µM, first compound 0.1 µM
[15] = second compound 0.1 µM, first compound 0.316 µM
[16] = second compound 0.1 µM, first compound 1 µM
[17] = second compound 0.1 µM, first compound 3.16 µM
[18] = second compound 0.1 µM, first compound 10 µM
[19] = second compound 0.316 µM, first compound 0.0316 µM
[20] = second compound 0.316 µM, first compound 0.1 µM
[21] = second compound 0.316 µM, first compound 0.316 µM
[22] = second compound 0.316 µM, first compound 1 µM
[23] = second compound 0.316 µM, first compound 3.16 µM
[24] = second compound 0.316 µM, first compound 10 µM
[25] = second compound 1 µM, first compound 0.0316 µM
[26] = second compound 1 µM, first compound 0.1 µM
[27] = second compound 1 µM, first compound 0.316 µM
[28] = second compound 1 µM, first compound 1 µM
[29] = second compound 1 µM, first compound 3.16 µM
[30] = second compound 1 µM, first compound 10 µM
[31] = second compound 3.16 µM, first compound 0.0316 µM
[32] = second compound 3.16 µM, first compound 0.1 µM
[33] = second compound 3.16 µM, first compound 0.316 µM
[34] = second compound 3.16 µM, first compound 1 µM
[35] = second compound 3.16 µM, first compound 3.16 µM
[36] = second compound 3.16 µM, first compound 10 µM
[37] = second compound 10 µM, first compound 0.0316 µM
[38] = second compound 10 µM, first compound 0.1 µM
[39] = second compound 10 µM, first compound 0.316 µM
[40] = second compound 10 µM, first compound 1 µM
[41] = second compound 10 µM, first compound 3.16 µM
[42] = second compound 10 µM, first compound 10 µM
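Further: spheroids exposed to agents for seven days before readout.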
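Wherever viability, T/C is given: percent of vehicle DMSO control viability so 100% = untreated growth.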

SMILES: Cn1ncc(Cl)c1-c1cc(C(=O)NC(CN)Cc2cccc(F)c2)sc1Cl (stereo not given) + Cc1nc(NC(=O)N2CCCC2C(N)=O)sc1-c1ccnc(C(C)(C)C(F)(F)F)c1
- IC50 [1]: 391 nM
- IC50 [2]: 657 nM
- IC50 [3]: 362 nM
- IC50 [4]: 52.2 nM
- IC50 [5]: < 31.6 nM
- IC50 [6]: < 31.6 nM
- viability, T/C [7]: 82.8%
- viability, T/C [8]: 65%
- viability, T/C [9]: 57.8%
- viability, T/C [10]: 33.6%
- viability, T/C [11]: 28.4%
- viability, T/C [12]: 17.6%
- viability, T/C [13]: 83.9%
- viability, T/C [14]: 64%
- viability, T/C [15]: 67.5%
- viability, T/C [16]: 41.8%
- viability, T/C [17]: 27.4%
- viability, T/C [18]: 12.2%
- viability, T/C [19]: 67.4%
- viability, T/C [20]: 61.3%
- viability, T/C [21]: 52.4%
- viability, T/C [22]: 36.9%
- viability, T/C [23]: 29.5%
- viability, T/C [24]: 11.1%
- viability, T/C [25]: 52%
- viability, T/C [26]: 47.4%
- viability, T/C [27]: 44.6%
- viability, T/C [28]: 35.8%
- viability, T/C [29]: 28.6%
- viability, T/C [30]: 12%
- viability, T/C [31]: 44.5%
- viability, T/C [32]: 42.1%
- viability, T/C [33]: 43.6%
- viability, T/C [34]: 30.7%
- viability, T/C [35]: 25.4%
- viability, T/C [36]: 9.67%
- viability, T/C [37]: 40.4%
- viability, T/C [38]: 36.1%
- viability, T/C [39]: 34.1%
- viability, T/C [40]: 26.1%
- viability, T/C [41]: 20.9%
- viability, T/C [42]: 7.53%

SMILES: CC(C)NCC(C(=O)N1CCN(c2ncnc3c2C(C)CC3O)CC1)c1ccc(Cl)cc1 (stereo not given) + Cc1nc(NC(=O)N2CCCC2C(N)=O)sc1-c1ccnc(C(C)(C)C(F)(F)F)c1
- IC50 [1]: 977 nM
- IC50 [2]: 784 nM
- IC50 [3]: 834 nM
- IC50 [4]: 461 nM
- IC50 [5]: < 31.6 nM
- IC50 [6]: < 31.6 nM
- viability, T/C [7]: 87.3%
- viability, T/C [8]: 73.3%
- viability, T/C [9]: 76.3%
- viability, T/C [10]: 47.9%
- viability, T/C [11]: 30.2%
- viability, T/C [12]: 22.1%
- viability, T/C [13]: 87.8%
- viability, T/C [14]: 73.7%
- viability, T/C [15]: 64%
- viability, T/C [16]: 47.7%
- viability, T/C [17]: 29.5%
- viability, T/C [18]: 19.2%
- viability, T/C [19]: 70.3%
- viability, T/C [20]: 67.3%
- viability, T/C [21]: 68.9%
- viability, T/C [22]: 44.5%
- viability, T/C [23]: 31.7%
- viability, T/C [24]: 21%
- viability, T/C [25]: 55.6%
- viability, T/C [26]: 50.3%
- viability, T/C [27]: 60.1%
- viability, T/C [28]: 40.2%
- viability, T/C [29]: 29.5%
- viability, T/C [30]: 19.1%
- viability, T/C [31]: 41.3%
- viability, T/C [32]: 48.1%
- viability, T/C [33]: 43%
- viability, T/C [34]: 36.5%
- viability, T/C [35]: 25.8%
- viability, T/C [36]: 17.2%
- viability, T/C [37]: 32.8%
- viability, T/C [38]: 36.1%
- viability, T/C [39]: 27.8%
- viability, T/C [40]: 21.6%
- viability, T/C [41]: 19.8%
- viability, T/C [42]: 10.1%

SMILES: CC(Cn1ccc(-c2ccc(C#N)c(Cl)c2)n1)NC(=O)c1cc(C(C)O)[nH]n1 (stereo not given) + Cc1nc(NC(=O)N2CCCC2C(N)=O)sc1-c1ccnc(C(C)(C)C(F)(F)F)c1
- IC50 [1]: > 10000 nM
- IC50 [2]: > 10000 nM
- IC50 [3]: > 10000 nM
- IC50 [4]: > 10000 nM
- IC50 [5]: < 31.6 nM
- IC50 [6]: < 31.6 nM
- viability, T/C [7]: 76.5%
- viability, T/C [8]: 75.4%
- viability, T/C [9]: 96%
- viability, T/C [10]: 85.9%
- viability, T/C [11]: 94.3%
- viability, T/C [12]: 71.5%
- viability, T/C [13]: 99.7%
- viability, T/C [14]: 85.1%
- viability, T/C [15]: 80.8%
- viability, T/C [16]: 85%
- viability, T/C [17]: 86.2%
- viability, T/C [18]: 81.5%
- viability, T/C [19]: 65.4%
- viability, T/C [20]: 70.9%
- viability, T/C [21]: 72.6%
- viability, T/C [22]: 74.5%
- viability, T/C [23]: 100%
- viability, T/C [24]: 64.7%
- viability, T/C [25]: 53.4%
- viability, T/C [26]: 58.3%
- viability, T/C [27]: 55.5%
- viability, T/C [28]: 60.8%
- viability, T/C [29]: 54.7%
- viability, T/C [30]: 53%
- viability, T/C [31]: 46.5%
- viability, T/C [32]: 48.2%
- viability, T/C [33]: 44.5%
- viability, T/C [34]: 55.3%
- viability, T/C [35]: 40.8%
- viability, T/C [36]: 42.9%
- viability, T/C [37]: 34%
- viability, T/C [38]: 37.3%
- viability, T/C [39]: 39.2%
- viability, T/C [40]: 37.3%
- viability, T/C [41]: 34.2%
- viability, T/C [42]: 31.1%

SMILES: C[C@@H](NC(=O)c1ncnc(N)c1Cl)c1ncc(C(=O)Nc2cc(C(F)(F)F)c(Cl)cn2)s1
- viability, T/C (compound 0.0316 µM): 98.2% [middle of 4 runs]
- viability, T/C (compound 0.1 µM): 93% [middle of 4 runs]
- viability, T/C (compound 0.316 µM): 104% [middle of 4 runs]
- viability, T/C (compound 1 µM): 109% [middle of 4 runs]
- viability, T/C (compound 3.16 µM): 96.5% [middle of 4 runs]
- viability, T/C (compound 10 µM): 87.4% [middle of 4 runs]
- IC50 (curve of compound): > 10000 nM

SMILES: C=CC(=O)N1CCN(c2nc(=O)n(-c3c(C)ccnc3C(C)C)c3nc(-c4c(O)cccc4F)c(F)cc23)C(C)C1 (stereo not given) + CC(Nc1ccc2c(c1)OCCn1cc(N3C(=O)OCC3C(F)F)nc1-2)C(N)=O
- IC50 (curve of first compound, second compound 0.00316 µM): > 10000 nM
- IC50 (curve of first compound, second compound 0.01 µM): > 10000 nM
- IC50 [1]: > 10000 nM
- IC50 [2]: > 10000 nM
- IC50 [3]: > 10000 nM
- IC50 [4]: < 31.6 nM
- viability, T/C (second compound 0.00316 µM, first compound 0.0316 µM): 104%
- viability, T/C (second compound 0.00316 µM, first compound 0.1 µM): 87.8%
- viability, T/C (second compound 0.00316 µM, first compound 0.316 µM): 105%
- viability, T/C (second compound 0.00316 µM, first compound 1 µM): 105%
- viability, T/C (second compound 0.00316 µM, first compound 3.16 µM): 115%
- viability, T/C (second compound 0.00316 µM, first compound 10 µM): 95.9%
- viability, T/C (second compound 0.01 µM, first compound 0.0316 µM): 95.3%
- viability, T/C (second compound 0.01 µM, first compound 0.1 µM): 90%
- viability, T/C (second compound 0.01 µM, first compound 0.316 µM): 117%
- viability, T/C (second compound 0.01 µM, first compound 1 µM): 86.8%
- viability, T/C (second compound 0.01 µM, first compound 3.16 µM): 104%
- viability, T/C (second compound 0.01 µM, first compound 10 µM): 89.7%
- viability, T/C [7]: 79.2%
- viability, T/C [8]: 78.6%
- viability, T/C [9]: 104%
- viability, T/C [10]: 88.4%
- viability, T/C [11]: 100%
- viability, T/C [12]: 78.3%
- viability, T/C [13]: 76.1%
- viability, T/C [14]: 62.8%
- viability, T/C [15]: 76.9%
- viability, T/C [16]: 76.3%
- viability, T/C [17]: 81%
- viability, T/C [18]: 94.6%
- viability, T/C [19]: 63.5%
- viability, T/C [20]: 60.6%
- viability, T/C [21]: 59.5%
- viability, T/C [22]: 56.3%
- viability, T/C [23]: 62.2%
- viability, T/C [24]: 67.6%
- viability, T/C [25]: 45.3%
- viability, T/C [26]: 53%
- viability, T/C [27]: 53.3%
- viability, T/C [28]: 41.6%
- viability, T/C [29]: 57%
- viability, T/C [30]: 47.7%
